PubChem BioAssay (NCI)
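48-hour exposure; five concentrations; linearly interpolated endpoints. GI50 is the concentration that inhibits growth by half. TGI: concentration producing complete growth inhibition.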

Key:
Assay in all cases: NCI-60 cell line screen, 48 h
A498 renal = test system: A498 renal
CAKI-1 renal = test system: CAKI-1 renal
HCT-15 colon = test system: HCT-15 colon
MALME-3M melanoma = test system: MALME-3M melanoma
MOLT-4 leukemia = test system: MOLT-4 leukemia
NCI-H226 lung = test system: NCI-H226 lung
SF-539 CNS = test system: SF-539 CNS
SK-MEL-5 melanoma = test system: SK-MEL-5 melanoma
SR leukemia = test system: SR leukemia
HS 578T breast = test system: HS 578T breast

Row | Compound | TGI (A498 renal) | TGI (CAKI-1 renal) | TGI (HCT-15 colon) | TGI (MALME-3M melanoma) | TGI (MOLT-4 leukemia) | TGI (NCI-H226 lung) | TGI (SF-539 CNS) | TGI (SK-MEL-5 melanoma) | TGI (SR leukemia) | GI50 (A498 renal) | GI50 (CAKI-1 renal) | GI50 (HCT-15 colon) | GI50 (MALME-3M melanoma) | GI50 (MOLT-4 leukemia) | GI50 (NCI-H226 lung) | GI50 (SF-539 CNS) | GI50 (SK-MEL-5 melanoma) | GI50 (SR leukemia) | GI50 (HS 578T breast) | TGI (HS 578T breast)
1 | O=C(O)CCCCCO | > 100 µM | > 100 µM | > 100 µM | > 100 µM | > 100 µM | > 100 µM | > 100 µM | > 100 µM | > 100 µM |  |  |  |  |  |  |  |  |  |  | 
2 | COc1cc([C@@H]2c3cc4c(cc3[C@@H](NCc3ccccc3)C3COC(=O)[C@@H]32)OCO4)cc(OC)c1O (stereo partly drawn) | 19.4 µM | 14.5 µM | 33.5 µM | 32.7 µM | 13 µM | 11.2 µM | 26.7 µM | 35.8 µM | 4.84 µM |  |  |  |  |  |  |  |  |  |  | 
3 | Cc1ccc(S(=O)(=O)SCc2ccccc2CSS(=O)(=O)c2ccc(C)cc2)cc1 | > 100 µM | 58.5 µM | 48.6 µM | > 100 µM | 43.9 µM | > 100 µM | 36.2 µM | > 100 µM | 43.5 µM |  |  |  |  |  |  |  |  |  |  | 
4 | O=C1[C@@H]2C3SC(c4ccccc43)[C@@H]2C(=O)N1c1ccccc1 | > 100 µM | > 100 µM | > 100 µM | > 100 µM | > 100 µM | > 100 µM | > 100 µM | > 100 µM | > 100 µM |  |  |  |  |  |  |  |  |  |  | 
5 | NCCCC1NC(=O)/C(=C(O)/C=C/C2CCC[C@@H]2CC2SCCS2)C1=O (stereo partly drawn) | > 100 µM |  |  | > 100 µM | > 100 µM | > 100 µM | > 100 µM | > 100 µM | > 100 µM |  |  |  |  |  |  |  |  |  |  | 
6 | CCc1ccc(Nc2cc(=O)[nH]c(=S)n2C)cc1 | > 100 µM | > 100 µM | > 100 µM | > 100 µM | > 100 µM | > 100 µM | > 100 µM | > 100 µM | > 100 µM |  |  |  |  |  |  |  |  |  |  | 
7 | COc1ccc2nc(NC(=O)C(=O)C(C(=O)c3ccccc3-c3ccccc3)C3OC(=O)c4ccccc43)sc2c1 (stereo not drawn) | 40.8 µM |  |  | 27.6 µM | 89.5 µM | 21.2 µM | 28.9 µM | 31.1 µM |  |  |  |  |  |  |  |  |  |  |  | 
8 | Nc1ccc2c(c1)CC1c3ccccc3C(C2)c2ccccc21 | > 100 µM | > 100 µM | > 100 µM | > 100 µM | > 100 µM |  | > 100 µM | > 100 µM |  |  |  |  |  |  |  |  |  |  |  | 
9 | CCC[CH2][Ge]([CH2]CCC)([CH2]CCC)[O]C(=O)C(OC)c1ccccc1 (stereo not drawn) | > 100 µM | > 100 µM | 32.4 µM | > 100 µM | > 60.6 µM | > 100 µM | > 100 µM | > 63.1 µM | > 55.4 µM | 46.8 µM | 70.1 µM | 9.52 µM | 26.7 µM | 3.74 µM | 92.7 µM | 32.1 µM | 17.5 µM |  |  | 
10 | CN(C)CC/C(=N\Nc1ccc(Cl)c(Cl)c1)c1ccccc1 | 9.13 µM |  | 4.18 µM | 13.3 µM | 5.9 µM |  | 3.47 µM | 3.43 µM | 5.58 µM |  |  |  |  |  |  |  |  |  |  | 
11 | COc1c(NC(=O)CC(C)=O)[c]([Hg][O]C(C)=O)c(OC)c(Cl)[c]1[Hg][O]C(C)=O |  | 25.6 µM | 28.8 µM | 16.8 µM | 64.4 µM | 33.9 µM | 9.7 µM | 25 µM | 82.1 µM |  | 13 µM | 14 µM | 5.17 µM | 19 µM | 17.7 µM | 2.72 µM | 12.5 µM | 3.67 µM |  | 
12 | Cc1ccc(NC(=O)CC/C(CC(=O)c2ccc(F)cc2)=N\NC(=O)C(=O)NN)cc1C | > 100 µM | > 100 µM | > 100 µM | > 100 µM |  | > 100 µM | > 100 µM | > 100 µM |  |  |  |  |  |  |  |  |  |  |  | 
13 | COc1cc(C(=O)C/C(CCC(=O)Nc2ccc(Cl)cc2Cl)=N/NC(=O)C(N)=O)ccc1O | > 100 µM | > 100 µM | > 100 µM | > 100 µM | > 100 µM | > 100 µM | > 100 µM | > 100 µM |  |  |  |  |  |  |  |  |  |  |  | 
14 | CCOC(=O)N1N=NC2C3OC(C[C@@]3(C#N)OC(C)=O)[C@H]21 (stereo partly drawn) |  | > 100 µM | > 100 µM | > 100 µM | > 100 µM | > 100 µM | > 100 µM | > 100 µM | > 100 µM |  |  |  |  |  |  |  |  |  |  | 
15 | N#CCN1CCOCCOCCN(CC#N)CCOCCOCC1 | > 100 µM | > 100 µM | > 100 µM | > 100 µM | > 100 µM | > 100 µM | > 100 µM | > 100 µM | > 100 µM |  |  |  |  |  |  |  |  |  |  | 
16 | CCOC(=O)[C@H]1Nc2ccc(Cl)cc2[C@H]2OCC[C@@H]12 | > 100 µM | > 100 µM | > 100 µM | > 100 µM | > 100 µM | > 100 µM | > 100 µM | > 100 µM |  |  |  |  |  |  |  |  |  |  |  | 
17 | Nc1nc(N)c(N=O)c(Nc2ccc(I)cc2)n1 |  |  | 96.7 µM | 78.3 µM | 65.9 µM |  | 70.4 µM | 26.3 µM | 76.1 µM |  |  |  |  |  |  |  |  |  |  | 
18 | CCC[CH2][Sn]([CH2]CCC)([O]C(=O)c1cc(OC)c(OC)cc1OC)[O]C(=O)c1cc(OC)c(OC)cc1OC | 3.21 µM | 1.63 µM | 2.92 µM | 2.08 µM | 6.43 µM | 8.26 µM | 2.23 µM | 3.18 µM |  | 1.48 µM | 0.419 µM | 1.26 µM | 0.793 µM | 0.747 µM | 2.21 µM | 1.02 µM | 1.6 µM |  |  | 
19 | Cc1c(C(=O)/C=C/c2ccccc2Cl)[n+](=O)c2ccccc2n1[O-] | 26.9 µM | 10.6 µM | 21.7 µM | 29.2 µM | 42 µM | 28.8 µM | 29.4 µM | 31.9 µM | 51.5 µM |  |  |  |  |  |  |  |  |  |  | 
20 | O=C1c2cc3c(cc2[C@@H]2[C@H]1c1ccc([N+](=O)[O-])cc1C(=O)N2CCCCl)OCO3 | < 0.01 µM | < 0.01 µM | > 40.6 µM |  | > 100 µM | 0.136 µM |  | < 0.01 µM |  | < 0.01 µM | < 0.01 µM | < 0.0145 µM |  | > 100 µM | < 0.01 µM | < 0.01 µM | < 0.01 µM |  | 0.174 µM | 61.5 µM
21 | OCCNc1ncnc2c1ncn2C1OC(CO)C(O)C1O (stereo not drawn) | > 100 µM | > 100 µM | > 100 µM | > 100 µM |  |  | > 100 µM | > 100 µM |  |  |  |  |  |  |  |  |  |  |  | > 100 µM
